pIC50: −log10 of the molar value.
How the values were obtained:
[1] = molecular target: Histone deacetylase 4/Myocyte-specific enhancer factor 2D (Homo sapiens, UniProt P56524+Q14814); assay: Inhibitory Effects of the Compounds on MEF2D and HDAC4 Protein Interactions: Detection of MEF2D and HDAC4 interactions. In this mammalian two-hybrid assay, HDAC4 and MEF2D proteins were used. […] Human epithelial carcinoma cells (HeLa) were co-transfected with the two DNA constructs (GAL4-MEF2D and HDAC4-VP16) and a reporter plasmid (Gal4Luc). […] MEF2D and HDAC4 protein interactions were detected as a result of the GAL4-MEF2D and HDAC4-VP16 protein complex binding a DNA promoter on the reporter plasmid (Gal4Luc) and driving cellular expression of a luciferase gene. The measured luciferase protein signal was proportional to the amount of MEF2D and HDAC4 protein interactions occurring with the cell.
Histone deacetylase 4/Myocyte-specific enhancer factor 2D, sequence (P56524 whole entry, the tested form may be a part): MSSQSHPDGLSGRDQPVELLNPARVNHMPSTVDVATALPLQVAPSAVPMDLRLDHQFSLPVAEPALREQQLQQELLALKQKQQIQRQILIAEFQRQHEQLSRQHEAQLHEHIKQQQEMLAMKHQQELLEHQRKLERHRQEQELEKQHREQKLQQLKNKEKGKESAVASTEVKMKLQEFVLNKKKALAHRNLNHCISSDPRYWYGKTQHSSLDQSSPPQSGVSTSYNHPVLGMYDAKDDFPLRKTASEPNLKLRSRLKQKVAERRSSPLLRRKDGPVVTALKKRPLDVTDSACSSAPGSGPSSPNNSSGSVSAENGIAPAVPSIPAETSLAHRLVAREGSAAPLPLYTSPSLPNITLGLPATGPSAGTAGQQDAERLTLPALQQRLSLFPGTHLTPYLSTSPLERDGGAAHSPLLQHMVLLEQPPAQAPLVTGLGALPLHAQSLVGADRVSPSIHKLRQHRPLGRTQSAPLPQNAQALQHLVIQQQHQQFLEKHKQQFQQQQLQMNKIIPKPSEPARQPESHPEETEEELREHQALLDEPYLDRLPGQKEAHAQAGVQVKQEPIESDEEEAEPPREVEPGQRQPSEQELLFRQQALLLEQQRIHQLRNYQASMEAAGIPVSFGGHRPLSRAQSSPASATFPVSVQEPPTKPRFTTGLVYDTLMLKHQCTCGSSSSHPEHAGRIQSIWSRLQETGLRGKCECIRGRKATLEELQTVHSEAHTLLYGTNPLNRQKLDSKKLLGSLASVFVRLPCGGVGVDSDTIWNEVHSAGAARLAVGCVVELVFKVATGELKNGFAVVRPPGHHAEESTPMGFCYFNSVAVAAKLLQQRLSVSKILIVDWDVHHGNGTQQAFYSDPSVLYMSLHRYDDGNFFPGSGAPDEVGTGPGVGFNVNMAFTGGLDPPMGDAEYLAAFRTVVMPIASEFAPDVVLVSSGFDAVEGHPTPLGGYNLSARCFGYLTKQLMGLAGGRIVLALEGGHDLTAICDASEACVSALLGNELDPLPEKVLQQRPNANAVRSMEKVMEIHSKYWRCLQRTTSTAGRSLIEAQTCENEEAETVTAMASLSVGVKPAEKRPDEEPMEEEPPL
Histone deacetylase 4/Myocyte-specific enhancer factor 2D, sequence (Q14814 whole entry, the tested form may be a part): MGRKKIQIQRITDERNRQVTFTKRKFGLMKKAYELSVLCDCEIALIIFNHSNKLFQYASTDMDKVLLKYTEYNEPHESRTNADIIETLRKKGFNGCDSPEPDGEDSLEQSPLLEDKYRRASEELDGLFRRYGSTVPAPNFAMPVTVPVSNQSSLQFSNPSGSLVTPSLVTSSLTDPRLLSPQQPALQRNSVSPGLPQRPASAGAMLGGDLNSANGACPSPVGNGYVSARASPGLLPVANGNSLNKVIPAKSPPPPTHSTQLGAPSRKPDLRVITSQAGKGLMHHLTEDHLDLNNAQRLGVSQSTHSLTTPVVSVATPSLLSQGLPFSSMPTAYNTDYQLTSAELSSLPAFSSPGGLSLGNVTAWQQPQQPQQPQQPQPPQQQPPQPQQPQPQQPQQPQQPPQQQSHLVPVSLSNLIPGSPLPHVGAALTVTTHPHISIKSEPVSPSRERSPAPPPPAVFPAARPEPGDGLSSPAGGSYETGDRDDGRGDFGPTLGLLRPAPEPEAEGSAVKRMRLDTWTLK

[2] = molecular target: Histone acetyltransferase p300/Myocyte-specific enhancer factor 2D (Homo sapiens, UniProt Q09472+Q14814); assay: Inhibitory Effects of the Compounds on MEF2D and P300 Protein Interactions: Detection of MEF2D and P300 interactions. The same system that was used in Example 19 is used in here to detect MEF2D and P300 interactions. In this assay, two separate DNA constructs were made with MEF2D fused with the GAL4 DNA binding domain (GAL4-MEF2D) and P300 fused with the viral transactivator VP-16 […] epithelial carcinoma cells (HeLa) were co-transfected with the two DNA constructs (GAL4-MEF2D and P300-VP16) and a reporter plasmid (Gal4Luc). […] MEF2D and P300 protein interactions were detected as a result of the GAL4-MEF2D and P300-VP16 protein complex binding a DNA promoter on the reporter plasmid (Gal4Luc) and driving cellular expression of a luciferase gene. The measured luciferase protein signal was proportional to the amount of MEF2D and P300 protein interactions occurring with the cell.
Histone acetyltransferase p300/Myocyte-specific enhancer factor 2D, sequence (Q09472 whole entry, the tested form may be a part): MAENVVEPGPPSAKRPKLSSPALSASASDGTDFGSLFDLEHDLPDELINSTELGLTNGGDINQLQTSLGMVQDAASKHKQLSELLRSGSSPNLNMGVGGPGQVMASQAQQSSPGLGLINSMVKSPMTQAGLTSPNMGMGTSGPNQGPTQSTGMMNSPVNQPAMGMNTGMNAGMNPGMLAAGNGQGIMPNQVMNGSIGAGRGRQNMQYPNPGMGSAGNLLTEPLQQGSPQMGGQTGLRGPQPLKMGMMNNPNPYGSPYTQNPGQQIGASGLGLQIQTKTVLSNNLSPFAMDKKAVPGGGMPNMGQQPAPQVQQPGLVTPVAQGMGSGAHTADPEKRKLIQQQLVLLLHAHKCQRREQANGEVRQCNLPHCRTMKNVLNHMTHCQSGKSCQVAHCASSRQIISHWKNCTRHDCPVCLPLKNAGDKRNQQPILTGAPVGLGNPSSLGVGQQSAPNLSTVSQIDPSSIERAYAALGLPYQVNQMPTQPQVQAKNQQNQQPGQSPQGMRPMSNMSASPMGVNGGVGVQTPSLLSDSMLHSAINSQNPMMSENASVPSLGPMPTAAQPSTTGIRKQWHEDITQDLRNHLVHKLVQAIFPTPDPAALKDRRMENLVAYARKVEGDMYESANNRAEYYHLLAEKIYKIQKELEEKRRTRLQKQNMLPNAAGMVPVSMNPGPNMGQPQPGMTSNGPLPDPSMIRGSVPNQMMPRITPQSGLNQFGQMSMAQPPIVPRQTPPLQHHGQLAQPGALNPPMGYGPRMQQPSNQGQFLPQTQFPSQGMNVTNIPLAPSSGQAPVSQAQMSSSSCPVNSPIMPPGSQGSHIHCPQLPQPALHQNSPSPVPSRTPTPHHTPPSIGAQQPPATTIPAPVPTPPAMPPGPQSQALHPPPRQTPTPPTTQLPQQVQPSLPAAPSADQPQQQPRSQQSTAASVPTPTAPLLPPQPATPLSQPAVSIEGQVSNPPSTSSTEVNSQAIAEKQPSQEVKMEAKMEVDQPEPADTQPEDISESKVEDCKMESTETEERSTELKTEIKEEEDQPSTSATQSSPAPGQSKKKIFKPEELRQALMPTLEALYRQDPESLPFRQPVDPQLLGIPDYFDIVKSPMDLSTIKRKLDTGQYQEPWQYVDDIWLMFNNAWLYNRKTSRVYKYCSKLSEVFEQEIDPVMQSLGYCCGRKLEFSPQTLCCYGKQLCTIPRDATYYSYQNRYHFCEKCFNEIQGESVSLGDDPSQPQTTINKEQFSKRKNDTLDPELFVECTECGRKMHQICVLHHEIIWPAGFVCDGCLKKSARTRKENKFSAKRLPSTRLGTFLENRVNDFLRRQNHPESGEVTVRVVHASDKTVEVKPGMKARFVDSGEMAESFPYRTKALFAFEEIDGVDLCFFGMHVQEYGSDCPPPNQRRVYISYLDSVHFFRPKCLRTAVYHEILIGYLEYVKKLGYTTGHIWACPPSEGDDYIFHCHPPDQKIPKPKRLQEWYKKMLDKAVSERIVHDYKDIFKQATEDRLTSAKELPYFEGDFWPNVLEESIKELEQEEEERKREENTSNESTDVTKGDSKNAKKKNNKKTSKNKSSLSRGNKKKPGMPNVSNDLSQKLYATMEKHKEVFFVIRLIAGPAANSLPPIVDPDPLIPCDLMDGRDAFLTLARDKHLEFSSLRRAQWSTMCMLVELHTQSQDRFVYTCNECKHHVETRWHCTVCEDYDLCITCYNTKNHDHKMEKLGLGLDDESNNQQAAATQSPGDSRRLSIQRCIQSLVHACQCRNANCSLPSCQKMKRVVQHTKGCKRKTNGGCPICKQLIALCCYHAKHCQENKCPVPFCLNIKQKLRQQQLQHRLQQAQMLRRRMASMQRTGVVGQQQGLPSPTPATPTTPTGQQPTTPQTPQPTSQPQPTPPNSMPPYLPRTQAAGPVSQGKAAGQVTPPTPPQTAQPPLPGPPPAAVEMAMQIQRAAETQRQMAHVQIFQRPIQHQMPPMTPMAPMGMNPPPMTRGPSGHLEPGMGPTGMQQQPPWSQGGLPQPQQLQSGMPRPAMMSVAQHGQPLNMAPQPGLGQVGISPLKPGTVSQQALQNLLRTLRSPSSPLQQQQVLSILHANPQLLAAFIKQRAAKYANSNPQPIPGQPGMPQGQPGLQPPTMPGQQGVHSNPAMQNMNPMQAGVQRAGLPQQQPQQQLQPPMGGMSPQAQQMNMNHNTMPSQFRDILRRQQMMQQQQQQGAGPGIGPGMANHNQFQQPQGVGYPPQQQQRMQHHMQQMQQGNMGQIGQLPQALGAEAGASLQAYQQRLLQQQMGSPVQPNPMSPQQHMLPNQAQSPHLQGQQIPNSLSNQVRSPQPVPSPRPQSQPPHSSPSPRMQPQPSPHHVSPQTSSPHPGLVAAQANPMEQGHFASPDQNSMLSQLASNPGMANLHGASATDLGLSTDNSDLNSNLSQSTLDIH
Histone acetyltransferase p300/Myocyte-specific enhancer factor 2D, sequence (Q14814 whole entry, the tested form may be a part): as the sequence (Q14814 whole entry, the tested form may be a part) above

Structure (SMILES): Nc1ccccc1NC(=O)/C=C/c1cccc(CNc2ccc3ccccc3c2)c1
- pIC50 [1]: 5.14
- pIC50 [2]: 6.14

Structure (SMILES): Cc1[nH]c2ccccc2c1CCNCc1cccc(/C=C/C(=O)Nc2ccccc2N)c1
- pIC50 [1]: 6.29
- pIC50 [2]: 6.57

Structure (SMILES): Nc1ccccc1NC(=O)CCCCC(NC(=O)c1ccccc1)C(=O)Nc1ccccc1 (stereo unspecified)
- pIC50 [1]: 6.10
- pIC50 [2]: 6.15

Reference: ChEMBL document CHEMBL5728939, “Myocyte enhancer factor 2 (MEF2) modulators” (2022)
